Assays:
[1] = In vitro penetration rate across human skin in modified Franz cells; assay type: in vitro ADME; conditions: 3% suspension in ethanol/pH 7.4 phosphate buffer (0.2 M) 70/30
Experimental: Penetration rates of HPPs and their parent drugs through human skin were measured in vitro by modified Franz cells. A Franz cell had two chambers, the top sample chamber and the bottom receiving chamber. The human skin tissue (360-400 μm thick) that separated the top and the receiving chambers was isolated from the anterior or posterior thigh areas.
A compound tested (0.5 mL, 3% in a mixture of ethanol and phosphate buffer (0.2M, pH 7.4) (v/v, 70/30)) was added to the sample chamber of a Franz cell. The receiving chamber contains 2 ml of 2% bovine serum albumin in saline which was stirred at 600 rpm. The amount of the tested compound penetrating the skin was determined by high-performance liquid chromatography (HPLC) method.
The lowest detectable apparent flux values in this method was 1 μg/cm^2/h.

[2] = system: herpes simplex virus Type I; experiment: Anti-Herpes activity, treated for 5 days, first treatment just after HSV infection; assay type: in vivo; conditions: guinea pigs
Experimental: (§1) The evaluation of anti-Herpes activity of these prodrugs was carried out using the method described by Kern, et al. [Antimicrob. Agents Chemother. 14, 817, (1978)].
(§2) In the second experiment, female guinea pigs (n=10) were anesthetized. Herpes simplex virus (Type I or Type II, about 10^5 plaque forming units were used) was applied intravaginally to the guinea pigs using a cotton swab. […] Virus replication was monitored by determining the amount of virus recovered with vaginal swabs taken on day 7 after infection. External lesions were scored daily for ten days using the following scale: 0, no lesion; 1, redness and swelling; 2, a few small vesicles; 3, several large vesicles; 4, large ulcers and necrosis; and 5, paralysis. The percent Lesion Inhibition was calculated as follows: 100−[(Sum of maximum lesion scores of treated group divided by the Sum of the scores of infected control)×100] (Table 6).

[3] = system: herpes simplex virus Type II; experiment: as above; assay type: in vivo; conditions: guinea pigs
Experimental: as §1, §2

[4] = system: herpes simplex virus Type I; experiment: Anti-Herpes activity, treated for 3 days before HSV infection; assay type: in vivo; conditions: guinea pigs
Experimental: (§3) The evaluation of anti-Herpes activity of these prodrugs was carried out using the method described by Kern, et al. [Antimicrob. Agents Chemother. 14, 817, (1978)]. In each experiment, female guinea pigs (n=10) were anesthetized. […] Virus replication was monitored by determining the amount of virus recovered with vaginal swabs taken on day 7 after infection. […] The percent Lesion Inhibition was calculated as follows: 100-[(Sum of maximum lesion scores of treated group divided by the Sum of the scores of infected control)×100] (Table 5).

[5] = system: herpes simplex virus Type II; experiment: as above; assay type: in vivo; conditions: guinea pigs
Experimental: as §3

interferon production [6] = experiment: Interferon inducing activity in guinea pigs (serum protection of fibroblasts from mengovirus); assay type: in vivo; conditions: serum 18 hours after treatment
[7] = system: herpes simplex virus Type I; experiment: Anti-Herpes activity, treated for 5 days, first treatment 5 days after HSV infection; assay type: in vivo; conditions: guinea pigs
Experimental: as §1
(§4) In the third experiment, female guinea pigs (n=10) were anesthetized. The guinea pigs were then infected with herpes simplex virus (type I or Type II, about 10^5 plaque forming units were used) intravaginally using a cotton swab. […] External lesions were scored daily for ten days using the following scale: 0, no lesion; 1, redness and swelling; 2, a few small vesicles; 3, several large vesicles; 4, large ulcers and necrosis; and 5, paralysis. The percent Lesion Inhibition was calculated as follows: 100−[(Sum of maximum lesion scores of treated group divided by the Sum of the scores of infected control)×100] (Table 7).

[8] = system: herpes simplex virus Type II; experiment: as above; assay type: in vivo; conditions: guinea pigs
Experimental: as §1, §4

interferon production [9] = experiment: Interferon inducing activity in guinea pigs (serum protection of fibroblasts from mengovirus); assay type: in vivo; conditions: serum 18 hours after treatment; remark: listed apart in the source
Experimental: Without being bound by any mechanism, the ability to induce interferon production of the pro-drugs of the invention was evaluated in guinea pigs (n=10). Untreated guinea pigs provided controls.
Each test drug was administered to real back skin of a guinea pig at a specific dose of about 0.5-4.5 mg/kg respectively.
Each treated and control guinea pig was bled 18 hours after drug treatment and its serum was assayed for interferon activity. The serum was diluted and incubated with guinea pig fibroblast cells at 37° C. overnight in 96 well microtiter plates. The incubated cells were then challenged with an inoculum of mengovirus that was sufficient to kill untreated cells in two days. Two days after such challenge, the cells were examined both microscopically and after staining with crystal violet to determine whether the cells remained intact.
Table 4 contains the results of the study with activity/ml indicating the highest dilute on of serum that protected cells from virus challenge. Untreated guinea pigs provided controls.

[10] = 0.5 mg/kg once per day for 5 days
[11] = 1.5 mg/kg once per day for 5 days
[12] = 4.5 mg/kg once per day for 5 days
[13] = 0.5 mg/kg once per day for 3 days before HSV infection
[14] = 1.5 mg/kg once per day for 3 days before HSV infection
[15] = 4.5 mg/kg once per day for 3 days before HSV infection

In the case of `Cl.Nc1nc2ccccc2c2c1ncn2Cc1ccccc1` [1-benzyl-1H-imidazo[4,5-c]quinolin-4-amine hydrochloride, reference compound], the “In vitro Penetration Rate of Parent compounds (apparent flux)” value [1] is reported as 0.005 mg/cm^2/h.

In the case of `CCCCn1cnc2c(N)nc3ccccc3c21.Cl` [1-butyl-1H-imidazo[4,5-c]quinolin-4-amine hydrochloride, reference compound], the “In vitro Penetration Rate of Parent compounds (apparent flux)” value [1] is reported as 0.005 mg/cm^2/h.

In the case of `CCCCCCn1cnc2c(N)nc3ccccc3c21.Cl` [1-hexyl-1H-imidazo[4,5-c]quinolin-4-amine hydrochloride, reference compound], the “% Lesion inhibition of the parent drug, intravaginal, Herpes type I” value [2, 10] is reported as 2%, the “% Lesion inhibition of the parent drug, transdermal, Herpes type I” value [2, 10] is reported as 2% and the “% Lesion inhibition of the parent drug, intravaginal, Herpes type I” value [2, 11] is reported as 11%. The “% Lesion inhibition of the parent drug, transdermal, Herpes type I” value [2, 11] was 5%, the “% Lesion inhibition of the parent drug, intravaginal, Herpes type I” value [2, 12] was 68% and the “% Lesion inhibition of the parent drug, transdermal, Herpes type I” value [2, 12] was 43%. For the same compound, the “% Lesion inhibition of the parent drug, intravaginal, Herpes type II” value [3, 10] was 2%, the “% Lesion inhibition of the parent drug, transdermal, Herpes type II” value [3, 10] was 2% and the “% Lesion inhibition of the parent drug, intravaginal, Herpes type II” value [3, 11] was 11%. The “% Lesion inhibition of the parent drug, transdermal, Herpes type II” value [3, 11] was 6%, the “% Lesion inhibition of the parent drug, intravaginal, Herpes type II” value [3, 12] was 71% and the “% Lesion inhibition of the parent drug, transdermal, Herpes type II” value [3, 12] was 41%. The “% Lesion inhibition of the parent drug, intravaginal, Herpes type I” value [4, 13] was 4%, the “% Lesion inhibition of the parent drug, transdermal, Herpes type I” value [4, 13] was 2% and the “% Lesion inhibition of the parent drug, intravaginal, Herpes type I” value [4, 14] was 16%. The “% Lesion inhibition of the parent drug, transdermal, Herpes type I” value [4, 14] was 3%, the “% Lesion inhibition of the parent drug, intravaginal, Herpes type I” value [4, 15] was 80% and the “% Lesion inhibition of the parent drug, transdermal, Herpes type I” value [4, 15] was 42%. The “% Lesion inhibition of the parent drug, intravaginal, Herpes type II” value [5, 13] was 5%, the “% Lesion inhibition of the parent drug, transdermal, Herpes type II” value [5, 13] was 2% and the “% Lesion inhibition of the parent drug, intravaginal, Herpes type II” value [5, 14] was 18%. The “% Lesion inhibition of the parent drug, transdermal, Herpes type II” value [5, 14] was 3%, the “% Lesion inhibition of the parent drug, intravaginal, Herpes type II” value [5, 15] was 81% and the “% Lesion inhibition of the parent drug, transdermal, Herpes type II” value [5, 15] was 45%. The “Interferon level of the parent drug, intravaginal” value (interferon production [6]; 0.5 mg/kg once) was 286 activity/ml, the “Interferon level of the parent drug, transdermal” value (interferon production [6]; 0.5 mg/kg once) was 178 activity/ml and the “Interferon level of the parent drug, intravaginal” value (interferon production [6]; 1.5 mg/kg once) was 1,562 activity/ml. The “Interferon level of the parent drug, transdermal” value (interferon production [6]; 1.5 mg/kg once) was 565 activity/ml, the “Interferon level of the parent drug, intravaginal” value (interferon production [6]; 4.5 mg/kg once) was 24,786 activity/ml and the “Interferon level of the parent drug, transdermal” value (interferon production [6]; 4.5 mg/kg once) was 1,945 activity/ml. For the same compound, the “% Lesion inhibition of the parent drug, intravaginal, Herpes type I” value [7, 10] was 2%, the “% Lesion inhibition of the parent drug, transdermal, Herpes type I” value [7, 10] was 2% and the “% Lesion inhibition of the parent drug, intravaginal, Herpes type I” value [7, 11] was 2%. The “% Lesion inhibition of the parent drug, transdermal, Herpes type I” value [7, 11] was 2%, the “% Lesion inhibition of the parent drug, intravaginal, Herpes type I” value [7, 12] was 35% and the “% Lesion inhibition of the parent drug, transdermal, Herpes type I” value [7, 12] was 18%. The “% Lesion inhibition of the parent drug, intravaginal, Herpes type II” value [8, 10] was 2%, the “% Lesion inhibition of the parent drug, transdermal, Herpes type II” value [8, 10] was 2% and the “% Lesion inhibition of the parent drug, intravaginal, Herpes type II” value [8, 11] was 2%. For the same compound, the “% Lesion inhibition of the parent drug, transdermal, Herpes type II” value [8, 11] was 2%, the “% Lesion inhibition of the parent drug, intravaginal, Herpes type II” value [8, 12] was 37% and the “% Lesion inhibition of the parent drug, transdermal, Herpes type II” value [8, 12] was 21%.

With `CCCCCCn1cnc2c(NC(=O)CN(C)C)nc3ccccc3c21.Cl` [N,N-dimethylglycine 1-n-hexyl-1H-imidazo[4,5-c]quinolin-4-amide hydrochloride] the “Interferon level of the HPP, transdermal” value (interferon production [9]; 0.5 mg/kg once) was 11,756 activity/ml, the “Interferon level of the HPP, transdermal” value (interferon production [9]; 1.5 mg/kg once) was 22,537 activity/ml and the “Interferon level of the HPP, transdermal” value (interferon production [9]; 4.5 mg/kg once) was 61,758 activity/ml. For the same compound, the “% Lesion inhibition of the HPP, intravaginal, Herpes type I” value [2, 10] was 67%, the “% Lesion inhibition of the HPP, transdermal, Herpes type I” value [2, 10] was 37% and the “% Lesion inhibition of the HPP, intravaginal, Herpes type I” value [2, 11] was 91%. For the same compound, the “% Lesion inhibition of the HPP, transdermal, Herpes type I” value [2, 11] was 73%, the “% Lesion inhibition of the HPP, intravaginal, Herpes type I” value [2, 12] was 95% and the “% Lesion inhibition of the HPP, transdermal, Herpes type I” value [2, 12] was 90%. For the same compound, the “% Lesion inhibition of the HPP, intravaginal, Herpes type II” value [3, 10] was 68%, the “% Lesion inhibition of the HPP, transdermal, Herpes type II” value [3, 10] was 38% and the “% Lesion inhibition of the HPP, intravaginal, Herpes type II” value [3, 11] was 90%. For the same compound, the “% Lesion inhibition of the HPP, transdermal, Herpes type II” value [3, 11] was 75%, the “% Lesion inhibition of the HPP, intravaginal, Herpes type II” value [3, 12] was 95% and the “% Lesion inhibition of the HPP, transdermal, Herpes type II” value [3, 12] was 91%. The “% Lesion inhibition of the HPP, intravaginal, Herpes type I” value [4, 13] was 67%, the “% Lesion inhibition of the HPP, transdermal, Herpes type I” value [4, 13] was 38% and the “% Lesion inhibition of the HPP, intravaginal, Herpes type I” value [4, 14] was 91%. For the same compound, the “% Lesion inhibition of the HPP, transdermal, Herpes type I” value [4, 14] was 67%, the “% Lesion inhibition of the HPP, intravaginal, Herpes type I” value [4, 15] was 95% and the “% Lesion inhibition of the HPP, transdermal, Herpes type I” value [4, 15] was 91%. The “% Lesion inhibition of the HPP, intravaginal, Herpes type II” value [5, 13] was 68%, the “% Lesion inhibition of the HPP, transdermal, Herpes type II” value [5, 13] was 40% and the “% Lesion inhibition of the HPP, intravaginal, Herpes type II” value [5, 14] was 90%. For the same compound, the “% Lesion inhibition of the HPP, transdermal, Herpes type II” value [5, 14] was 68%, the “% Lesion inhibition of the HPP, intravaginal, Herpes type II” value [5, 15] was 95% and the “% Lesion inhibition of the HPP, transdermal, Herpes type II” value [5, 15] was 93%. The “Interferon level of the HPP, intravaginal” value (interferon production [6]; 0.5 mg/kg once) was 21,857 activity/ml, the “Interferon level of the HPP, intravaginal” value (interferon production [6]; 1.5 mg/kg once) was 57,147 activity/ml and the “Interferon level of the HPP, intravaginal” value (interferon production [6]; 4.5 mg/kg once) was 78,569 activity/ml. The “% Lesion inhibition of the HPP, intravaginal, Herpes type I” value [7, 10] was 31%, the “% Lesion inhibition of the HPP, transdermal, Herpes type I” value [7, 10] was 28% and the “% Lesion inhibition of the HPP, intravaginal, Herpes type I” value [7, 11] was 62%. For the same compound, the “% Lesion inhibition of the HPP, transdermal, Herpes type I” value [7, 11] was 52%, the “% Lesion inhibition of the HPP, intravaginal, Herpes type I” value [7, 12] was 83% and the “% Lesion inhibition of the HPP, transdermal, Herpes type I” value [7, 12] was 82%. The “% Lesion inhibition of the HPP, intravaginal, Herpes type II” value [8, 10] was 28%, the “% Lesion inhibition of the HPP, transdermal, Herpes type II” value [8, 10] was 25% and the “% Lesion inhibition of the HPP, intravaginal, Herpes type II” value [8, 11] was 65%. For the same compound, the “% Lesion inhibition of the HPP, transdermal, Herpes type II” value [8, 11] was 55%, the “% Lesion inhibition of the HPP, intravaginal, Herpes type II” value [8, 12] was 85% and the “% Lesion inhibition of the HPP, transdermal, Herpes type II” value [8, 12] was 81%.
